Results as given in patent US7276510B2, “HIV replication inhibitors” (Janssen Pharmaceutica, Inc., priority 2000, dated 2007).
Counter-ions that a name gives are not always drawn. Like-named read-outs stand apart in the source and are kept apart here.

Key:
HIV-infected MT-4 cells = experiment: Inhibition of the HIV-induced cytopathic effect in MT-4 cells (MTT); assay type: cell-based; details: for SI (selectivity index, ratio of CC50 to IC50): CC50/IC50 in MT-4 cells; for IC50: HIV-infected MT-4 cells, MTT, OD 540 nm
Protocol: (§1) A rapid, sensitive and automated assay procedure was used for the in vitro evaluation of anti-HIV agents. An […] T4-cell line, MT-4, which was previously shown (Koyanagi et al., Int. J. Cancer, 36, 445-451, 1985) to be highly susceptible to and permissive for HIV infection, served as the target cell line. Inhibition of the HIV-induced cytopathic effect was used as the end point. The viability of both HIV- and mock-infected cells was assessed spectrophotometrically via the in situ reduction of 3-(4,5-dimethylthiazol-2-yl)-2,5-diphenyltetrazolium bromide (MTT). […] The percent protection achieved by the compound in HIV-infected cells was calculated by the following formula:
(§2) [formula] whereby (ODT)HIV is the optical density measured with a given concentration of the test compound in HIV-infected cells; (ODC)HIV is the optical density measured for the control untreated HIV-infected cells; (ODC)MOCK is the optical density measured for the control untreated mock-infected cells; all optical density values were determined at 540 nm. […] The ratio of CC50 to IC50 was defined as the selectivity index (SI).

[1] = Cytotoxicity in mock-infected MT-4 cells (MTT); assay type: cell-based; details: human, OD 540 nm
Protocol: as §1, §2

mock-infected MT-4 cells = experiment: Cytotoxicity in mock-infected MT-4 cells (MTT); assay type: cell-based; details: read-out: CC50 (50% cytotoxic concentration), OD 540 nm
Protocol: as §1, §2

[2] = Human immunodeficiency virus 1, MT4, read-out: IC50 (50% inhibitory concentration; dose achieving 50% protection)
[3] = read-out: IC50 (50% inhibitory concentration; dose achieving 50% protection)

| melting point | SMILES | SI (selectivity index, ratio of CC50 to IC50) (HIV-infected MT-4 cells) | IC50 (HIV-infected MT-4 cells; [2]) [nM] | CC50 [1] [nM] | IC50 (HIV-infected MT-4 cells; [3]) [nM] | CC50 (mock-infected MT-4 cells) [nM] |
| --- | --- | --- | --- | --- | --- | --- |
| – | Cc1cc(C)c(Nc2cc(C(=O)N(C)C)nc(Nc3ccc(C#N)cc3)n2)c(C)c1 [Compound 66] | 19950 | 1.58 | 31600 | – | – |
| 223 to 224 °C | CNCc1nc(Nc2ccc(C#N)cc2)nc(Oc2c(C)cc(C#N)cc2C)c1Br [Compound 74] | – | – | – | – | – |
| 275 to 285 °C | N#Cc1ccc(Nc2nc(Cc3c(Cl)cccc3Cl)cc(-n3ccnc3)n2)cc1 [Compound 39] | – | – | – | – | – |
| 203 to 204 °C | COCc1cc(Oc2c(C)cc(C#N)cc2C)nc(Nc2ccc(C#N)cc2)n1 [Compound 2] | 31621 | 1.58 | 50100 | – | – |
| 249 to 251 °C | Cc1cc(C#N)cc(C)c1Nc1cc(C(F)(F)F)nc(Nc2ccc(C#N)cc2)n1 [Compound 33, 4-[[[6-trifluoromethyl-2-(4-cyanophenylamino)]-4-pyrimidinyl]amino]-3,5-dimethylbenzonitrile] | 1586 | 3.16 | 5010 | – | – |
| – | N#Cc1ccc(Nc2nc(Cl)nc(Nc3c(Cl)cc(Cl)cc3Cl)n2)cc1 [Compound 85] | – | – | – | 20 | 50100 |
| 219 to 221 °C | C[S+]([O-])c1nc(Cc2c(Cl)cccc2Cl)nc(Nc2ccc(C#N)cc2)n1 (centres unmarked) [Compound 8] | – | – | – | – | – |
| 175 °C | N#Cc1ccc(Nc2nc(Cc3c(Cl)cccc3Cl)nc(N3CC(O)CO3)n2)cc1 (centres unmarked) (as salt: trifluoroacetate) [Compound 11] | – | – | – | – | – |
| – | N#Cc1ccc(Nc2nc(CO)cc(Oc3c(Br)cc(C#N)cc3Br)n2)cc1 [Compound 14] | 2500 | 4 | > 10000 | – | – |
| – | COc1ccc(Nc2nc(Oc3c(C)cc(C#N)cc3C)cc(C(=O)N(C)C)n2)cn1 [Compound 65] | 1000 | 79.4 | 79400 | – | – |
| – | N#Cc1ccc(Nc2nc(Cc3c(Cl)cccc3Cl)nc(N3C(=O)CCC3=O)n2)cc1 [Compound 48] | – | – | – | 7.9 | > 200000 |
| – | Cc1cc(C)c(Nc2cc(C(N)=O)nc(Nc3ccc(C#N)cc3)n2)c(C)c1 [Compound 61, 2-[(4-cyanophenyl)amino]-6-[(2,4,6-trimethylphenyl)amino]-4-pyrimidine carboxamide] | 19968 | 2.51 | 50100 | – | – |
| 238 to 240 °C | Cc1cc(C#N)cc(C)c1Oc1nc(Nc2ccc(C#N)cc2)nc(CCl)c1Br [Compound 73] | – | – | – | – | – |
| – | Cc1cc(C#N)cc(C)c1Oc1nc(Nc2ccc(C#N)cc2)nc(CO)c1Br [Compound 13, 4-[[[5-bromo-4-(4-cyano-2,6-dimethylphenoxy)-6-hydroxymethyl]-2-pyrimidinyl]amino]benzonitrile] | >25000 | 4 | > 100000 | – | – |
| – | COCc1cc(Oc2c(Br)cc(C#N)cc2Br)nc(Nc2ccc(C#N)cc2)n1 [Compound 27] | – | – | – | 10 | > 10000 |
| – | CSc1nc(Nc2ccc(C#N)cc2)nc(Nc2c(C)cc(C)cc2C)n1 [Compound 20] | – | – | – | 2 | 3980 |
| 221 to 230 °C | N#Cc1ccc(Nc2nc(C#N)nc(Cc3c(Cl)cccc3Cl)n2)cc1 [Compound 5] | 501 | 19.9 | 10000 | – | – |
| 225 to 227 °C | C=CCONc1nc(Cc2c(Cl)cccc2Cl)nc(Nc2ccc(C#N)cc2)n1 (as salt: trifluoroacetate) [Compound 43] | – | – | – | – | – |
| 198 to 199 °C | COc1nc(Cc2c(Cl)cccc2Cl)nc(Nc2ccc(C#N)cc2)n1 [Compound 9] | >10000 | 10 | > 100000 | – | – |
| 198 to 199 °C | COCc1nc(Nc2ccc(C#N)cc2)nc(Oc2c(C)cc(C#N)cc2C)c1Br [Compound 12, 4-[[[5-bromo-4-(4-cyano-2,6-dimethylphenoxy)-6-methoxymethyl]-2-pyrimidinyl]amino]benzonitrile] | >25000 | 4 | > 100000 | – | – |
| – | COc1ccc(Nc2nc(Oc3c(C)cc(C#N)cc3C)cc(C(N)=O)n2)cn1 [Compound 56] | 1585 | 63.1 | > 100000 | – | – |
| 278 to 282 °C | N#Cc1ccc(Nc2nc(Cc3c(Cl)cccc3Cl)nc(N3C(=O)CCCC3=O)n2)cc1 [Compound 37] | – | – | – | – | – |
| – | COC(=O)c1cc(Nc2c(C)cc(C)cc2C)nc(Nc2ccc(C#N)cc2)n1 [Compound 62] | 1261 | 6.3 | 7940 | – | – |

| melting point | SMILES | SI (selectivity index, ratio of CC50 to IC50) (HIV-infected MT-4 cells) | IC50 (HIV-infected MT-4 cells; [2]) [nM] | CC50 [1] [nM] | IC50 (HIV-infected MT-4 cells; [3]) [nM] | CC50 (mock-infected MT-4 cells) [nM] |
| --- | --- | --- | --- | --- | --- | --- |
| – | N#Cc1ccc(Nc2nc(Cc3c(Cl)cccc3Cl)nc(N3CC(O)CO3)n2)cc1 (centres unmarked) [Compound 11] | 25138 | 2.51 | 63100 | – | – |
| – | CCOc1nc(Cc2c(Cl)cccc2Cl)nc(Nc2ccc(C#N)cc2)n1 [Compound 58] | – | – | – | 25.1 | 50100 |
| 262 to 263 °C | N#Cc1ccc(Nc2nc(Cc3c(Cl)cccc3Cl)nc(C(N)=O)n2)cc1 [Compound 38] | >39841 | 2.51 | > 100000 | – | – |
| 260 to 265 °C | Cc1cc(C#N)cc(C)c1Oc1nc(Cl)nc(Nc2ccc(C#N)cc2)n1 [Compound 60] | – | – | – | – | – |
| 287 to 295 °C | NC(=O)c1ccc(Nc2nc(Cc3c(Cl)cccc3Cl)nc(C(N)=O)n2)cc1 [Compound 40] | – | – | – | – | – |
| – | N#Cc1ccc(Nc2nc(CO)c(Br)c(Oc3c(Br)cc(C#N)cc3Br)n2)cc1 [Compound 16, 4-[[[5-bromo-4-(4-cyano-2,6-dibromophenoxy)-6-hydroxymethyl]2-pyrimidinyl]amino]benzonitrile] | >39841 | 25.1 | > 100000 | – | – |
| 213 to 214 °C | COCc1cc(Nc2cc(C)c(F)cc2Cl)nc(Nc2ccc(C#N)cc2)n1 [Compound 3] | >1996 | 50.1 | > 100000 | – | – |
| 268 to 269 °C | N#Cc1ccc(Nc2nc(Cc3c(Cl)cccc3Cl)nc(N3C(=O)COCC3=O)n2)cc1 [Compound 4] | 25197 | 1.58 | 39800 | – | – |
| – | Cc1cc(C)c(Nc2nc(Nc3ccc(C#N)cc3)nc(C(N)=O)n2)c(C)c1 [Compound 19, 6-[(4-cyanophenyl)amino]-4-[(2,4,6-trimethylphenyl)amino]-1,3,5-triazine-2-carboxamide] | 3162 | 1.26 | 3980 | – | – |
| – | CNC(=O)c1cc(Nc2c(C)cc(C)cc2C)nc(Nc2ccc(C#N)cc2)n1 [Compound 63] | 7946 | 5.01 | 39800 | – | – |
| 238 to 239 °C | N#Cc1ccc(Nc2nc(Cl)nc(Oc3c(Cl)cc(Cl)cc3Cl)n2)cc1 [Compound 72] | – | – | – | – | – |
| 199 to 201 °C | N#Cc1ccc(Nc2nc(F)nc(Cc3c(Cl)cccc3Cl)n2)cc1 [Compound 49] | – | – | – | – | – |
| 184 to 185 °C | CSc1nc(Cc2c(Cl)cccc2Cl)nc(Nc2ccc(C#N)cc2)n1 [Compound 7] | 1990 | 20 | 39800 | – | – |
| 243 to 244 °C | N#Cc1ccc(Nc2nc(Cl)nc(Cc3c(Cl)cccc3Cl)n2)cc1 [Compound 1, 4-[[4-chloro-6-[(2,6-dichlorophenyl)methyl]-1,3,5-triazin-2-yl]amino]-benzonitrile] | – | – | – | – | – |
| – | Cc1cc(Cl)cc(Cl)c1Nc1nc(Cl)nc(Nc2ccc(C#N)cc2)n1 [Compound 109] | – | – | – | 3.98 | 12600 |
| – | Cc1cc(C)c(Nc2nc(Nc3ccc(C#N)cc3)nc(C(N)=O)c2Br)c(C)c1 [Compound 98, 5-bromo-2-[(4-cyanophenyl)amino]-6-[(2,4,6-trimethylphenyl)amino]-4-pyrimidine carboxamide] | 15861 | 3.16 | 50100 | – | – |
| – | N#Cc1ccc(Nc2nc(Cc3c(Cl)cccc3Cl)nc(N3CCC(=O)O3)n2)cc1 [Compound 35] | 794 | 63.1 | 50100 | – | – |
| > 300 °C | N#Cc1ccc(Nc2nc(O)nc(Cc3c(Cl)cccc3Cl)n2)cc1 [Compound 10] | – | – | – | – | – |
| – | C=CCONc1nc(Cc2c(Cl)cccc2Cl)nc(Nc2ccc(C#N)cc2)n1 [Compound 43] | 3981 | 15.8 | 63100 | – | – |
| 254 to 255 °C | N#Cc1ccc(Nc2nc(S)nc(Cc3c(Cl)cccc3Cl)n2)cc1 [Compound 6] | – | – | – | – | – |
| 249 to 252 °C | Clc1cccc(Cl)c1Cc1nc(Nc2ccc(-c3nnn[nH]3)cc2)nc(-c2nnn[nH]2)n1 [Compound 42] | – | – | – | – | – |
| 258 to 259 °C (dec.) | COC(=O)c1cc(Oc2c(C)cc(C#N)cc2C)nc(Nc2ccc(C#N)cc2)n1 [Compound 71] | >3984 | 25.1 | > 100000 | – | – |
| 302 to 304 °C | N#Cc1ccc(Nc2nc(Cc3c(Cl)cccc3Cl)nc(-n3[nH]nnc3=N)n2)cc1 [Compound 46] | – | – | – | – | – |
